Reference: ChEMBL document CHEMBL3352016, “Natural hydrazine-containing compounds: Biosynthesis, isolation, biological activities and synthesis” (Bioorg Med Chem, 2014)
One block for each compound: values may come before it.

Assays:
[1] = Anticancer activity against human HCT116 cells; format: functional, cell-based; details: HCT-116
[2] = Inhibition of Escherichia coli DnaG primase
A-375 = assay: Anticancer activity against human A375 cells; format: functional, cell-based
[3] = Anticancer activity against human Caco2 cells; format: functional, cell-based; details: Caco-2
[4] = Anticancer activity against human MDA231 cells; format: functional, cell-based; details: MDA-MB-231

IC50 [1]: 0.8 µM | IC50 [2]: 700 µM
SMILES: CCCC/C=C\N(NC(C)=O)C(=O)C(CO)/N=[N+](\[O-])CCCCCC (stereo not given) [GERALCIN C]

IC50 (A-375): 1.6 µM
SMILES: N[C@@H](CCC(=O)NNc1ccc(O)cc1)C(=O)O [XANTHODERMINE]

IC50 [3]: 81 µM
SMILES: COc1cc(/C=C/C(=O)NCCc2c[nH]c3ccc(O)cc23)ccc1O [N-FERULOYL SEROTONIN]

IC50 [4]: 5 µM
SMILES: CCCC/C=C\N(NC(C)=O)C(=O)CCC1=CCOC1=O [GERALCIN B]
